Read-outs that look alike come from different tables or passages of the source.
What was measured:
potato stem segments = experiment: Carbohydrate sources, potato stem segments, 9 weeks; assay type: cell-based; conditions: 5 g/l, 9 weeks; for activity at 5000 µg/mL: Solanum tuberosum
Text: Similar results are observed with potato stem segments after 9 weeks of culturing.

[1] = tested on: plant material transgenic for the mannose 6-phosphate isomerase gene; experiment: Selection on mannose together with phloridzin; assay type: cell-based; conditions: 0.5 g/l phloridzin
Text: The transformed plant material is transgenic for the mannose 6-phosphate isomerase gene. After 21 days the selected shoots are harvested. […] Example 29 is repeated except that MOG is substituted by phloridzin. […] This is an example of how cross feeding and the production of escapers can be minimized by the addition of a carbohydrate transport inhibitor.

[2] = mannose 5.0 g/l, first '+ Sucrose' column
[3] = mannose 5.0 g/l, second '+ Sucrose' column
[4] = mannose 7.5 g/l, first '+ Sucrose' column
[5] = mannose 7.5 g/l, second '+ Sucrose' column
[6] = mannose 10.0 g/l, first '+ Sucrose' column
[7] = mannose 10.0 g/l, second '+ Sucrose' column
[8] = mannose 12.5 g/l, first '+ Sucrose' column
[9] = mannose 15.0 g/l, first '+ Sucrose' column

O=C(CO)[C@@H](O)[C@H](O)CO [D-xylulose]
# of Shoots per explant (potato stem segments): 2.2 | activity at 5000 µg/mL (potato stem segments; read-out: Size % of control): 74% | activity at 5000 µg/mL (potato stem segments; read-out: explants alive % of control): 58%

O=C(CCc1ccc(O)cc1)c1c(O)cc(O)cc1O[C@@H]1O[C@H](CO)[C@@H](O)[C@H](O)[C@H]1O [Phloridzin, phloridzin]
GUS+ Shoots/Expl. [1, 2]: 1.2 | GUS+ Shoots/Sel. Shoots [1, 2]: 94.0% | GUS+ Shoots/Expl. [1, 3]: 0.08 | GUS+ Shoots/Sel. Shoots [1, 3]: 100.0% | GUS+ Shoots/Expl. [1, 4]: 0.5 | GUS+ Shoots/Sel. Shoots [1, 4]: 88.0% | GUS+ Shoots/Expl. [1, 5]: 0.5 | GUS+ Shoots/Sel. Shoots [1, 5]: 78.5% | GUS+ Shoots/Expl. [1, 6]: 0.5 | GUS+ Shoots/Sel. Shoots [1, 6]: 100.0% | GUS+ Shoots/Expl. [1, 7]: 0.5 | GUS+ Shoots/Sel. Shoots [1, 7]: 95% | GUS+ Shoots/Expl. [1, 8]: 0.03 | GUS+ Shoots/Sel. Shoots [1, 8]: 100% | GUS+ Shoots/Expl. ([1]; mannose 12.5 g/l, second '+ Sucrose' column): 0.0 | GUS+ Shoots/Expl. [1, 9]: 0.03 | GUS+ Shoots/Sel. Shoots [1, 9]: 100% | GUS+ Shoots/Expl. ([1]; mannose 15.0 g/l, second '+ Sucrose' column): 0.0

Source: patent US5994629A, “Positive selection” (priority 1991, dated 1999)
